# From patent US20070160531A1 (priority 1995, published 2007)
# System: Rat Lung
# Settings: in vivo, iv
substance,measurement,value
^3H-daunomycin,% in lung (total drug in the lung as a percentage of the original dose),0.65%
same,% inj/g tissue,0.63 % inj/g
